Values quoted from earlier work as cited in patent publication US10300299B2, “Advanced methods and systems for treating cell proliferation disorders” (priority 2008, dated 2019).

Tests used:
rapidly dividing tissue = settings: in vivo
[1] = not given; remark: listed apart in the source
[2] = not given; remark: listed apart in the source

Molecule: Oc1cccc(-c2c3nc(c(-c4cccc(O)c4)c4ccc([nH]4)c(-c4cccc(O)c4)c4nc(c(-c5cccc(O)c5)c5ccc2[nH]5)CC4)C=C3)c1 [Foscan, Tetra (m-hydroxyphenyl) chlorin]
- duration of skin photosensitivity: approximately 2 weeks
- Length of photosensitization (Table 3, known photosensitizers): 2 weeks

Molecule: C/C1=C2/[N-][C@H]([C@H](CC(N)=O)[C@@]2(C)CCC(=O)NC[C@@H](C)OP(=O)([O-])O[C@H]2[C@@H](O)[C@@H](n3cnc4cc(C)c(C)cc43)O[C@@H]2CO)[C@]2(C)N=C(/C(C)=C3N=C(/C=C4N=C1[C@@H](CCC(N)=O)C\4(C)C)[C@@H](CCC(N)=O)[C@]\3(C)CC(N)=O)[C@@H](CCC(N)=O)[C@]2(C)CC(N)=O.[CH3-].[Co+3] [methylcobalamin]
- uptake in rapidly dividing tissue (rapidly dividing tissue): increased uptake

Molecule: Cobalt-57-cyanocobalamin
- uptake in rapidly dividing tissue (rapidly dividing tissue): increased uptake

Molecule: Vitamin B12
- excretion ([1]; in excess): excreted by gloinerular filtration
- toxicity ([1]; in vivo): no known toxicity
- water solubility [2]: water soluble
